The source made the active and inactive calls. The calls are words filed in the database; no cut-off is given here.
What was measured:
[1] = test system: Mus musculus; test: Anticonvulsant activity in ip dosed CF1 albino mouse assessed as protection against subcutaneous pentylenetetrazole-induced seizures after 0.5 hrs; type: functional; details: read-out: MED
[2] = test system: Mus musculus; test: Anticonvulsant activity in ip dosed CF1 albino mouse assessed as protection against maximal electroshock-induced seizures after 0.5 hrs; type: functional; details: read-out: MED
[3] = test system: Mus musculus; test: Anticonvulsant activity in ip dosed CF1 albino mouse assessed as protection against subcutaneous pentylenetetrazole-induced seizures after 4 hrs; type: functional; details: read-out: MED
[4] = test system: Mus musculus; test: Neurotoxicity in CF1 albino mouse assessed as minimum dose causing loss of righting reflex at 300 mg/kg, ip after 4 hrs by rotarod test; type: toxicity, organism-based; parameters: dose 300 mg/kg, route intraperitoneal; details: in vivo
[5] = test system: Mus musculus; test: Neurotoxicity in CF1 albino mouse assessed as loss of rotard grasping at 300 mg/kg, ip after 0.5 hrs by rotarod test; type: toxicity, organism-based; parameters: dose 300 mg/kg, route intraperitoneal; details: in vivo
[6] = test system: Mus musculus; test: Anticonvulsant activity in ip dosed CF1 albino mouse assessed as protection against maximal electroshock-induced seizures after 4 hrs; type: functional; details: read-out: MED
[7] = Lipophilicity, log P of compound; type: physicochemical; details: octanol/water
[8] = test system: Rattus norvegicus; test: Anticonvulsant activity in Sprague-Dawley albino rat assessed as protection against maximal electroshock-induced seizures at 30 mg/kg, po after 0.25 hrs; type: functional, organism-based; parameters: dose 30 mg/kg
[9] = test system: Rattus norvegicus; test: Anticonvulsant activity in Sprague-Dawley albino rat assessed as protection against maximal electroshock-induced seizures at 30 mg/kg, po after 0.5 hrs; type: functional, organism-based; parameters: dose 30 mg/kg
[10] = test system: Rattus norvegicus; test: Neurotoxicity in Sprague-Dawley albino rat assessed as motor impairment at 30 mg/kg, po after 0.5 hrs by rotarod test; type: toxicity, organism-based; parameters: dose 30 mg/kg, route oral; details: in vivo
[11] = test system: Rattus norvegicus; test: Neurotoxicity in Sprague-Dawley albino rat assessed as motor impairment at 30 mg/kg, po after 1 hrs by rotarod test; type: toxicity, organism-based; parameters: dose 30 mg/kg, route oral; details: in vivo
[12] = test system: Rattus norvegicus; test: Anticonvulsant activity in Sprague-Dawley albino rat assessed as protection against maximal electroshock-induced seizures at 30 mg/kg, po after 4 hrs; type: functional, organism-based; parameters: dose 30 mg/kg
[13] = test system: Rattus norvegicus; test: Neurotoxicity in Sprague-Dawley albino rat assessed as motor impairment at 30 mg/kg, po after 2 hrs by rotarod test; type: toxicity, organism-based; parameters: dose 30 mg/kg, route oral; details: in vivo
[14] = test system: Rattus norvegicus; test: Neurotoxicity in Sprague-Dawley albino rat assessed as motor impairment at 30 mg/kg, po after 4 hrs by rotarod test; type: toxicity, organism-based; parameters: dose 30 mg/kg, route oral; details: in vivo
[15] = test system: Mus musculus; test: Neurotoxicity in ip dosed CF1 albino mouse assessed as minimum dose required to cause impair in motor coordination after 0.5 hrs by rotarod test; type: toxicity, organism-based; details: in vivo
[16] = test system: Mus musculus; test: Neurotoxicity in CF1 albino mouse assessed as impair in motor coordination at 300 mg/kg, ip after 4 hrs by rotarod test; type: toxicity, organism-based; parameters: dose 300 mg/kg, route intraperitoneal; details: in vivo
[17] = test system: Mus musculus; test: Toxicity in subcutaneous pentylenetetrazole-induced CF1 albino mouse assessed as myoclonic jerks at 300 mg/kg, ip after 4 hrs; type: organism-based; parameters: dose 300 mg/kg; details: in vivo, sc
[18] = test system: Rattus norvegicus; test: Neurotoxicity in Sprague-Dawley albino rat assessed as motor impairment at 30 mg/kg, po after 0.25 hrs by rotarod test; type: toxicity, organism-based; parameters: dose 30 mg/kg, route oral; details: in vivo
[19] = test system: Mus musculus; test: Neurotoxicity in CF1 albino mouse assessed as impair in motor coordination at 300 mg/kg, ip after 0.5 hrs by rotarod test; type: toxicity, organism-based; parameters: dose 300 mg/kg, route intraperitoneal; details: in vivo
[20] = Neurotoxicity in oral dosed Sprague-Dawley albino rat assessed as motor impairment by rotarod test; type: toxicity, organism-based; details: in vivo
[21] = test system: Rattus norvegicus; test: Anticonvulsant activity in po dosed Sprague-Dawley albino rat assessed as time to peak effect; type: functional
[22] = species: Rattus norvegicus; test: Protective index, ratio of TD50 for neurotoxicity in Sprague-Dawley albino rat to ED50 for inhibition of maximal electroshock-induced seizures in Sprague-Dawley albino rat; type: functional
[23] = test system: Rattus norvegicus; test: Anticonvulsant activity in po dosed Sprague-Dawley albino rat assessed as protection against maximal electroshock-induced seizures; type: functional
[24] = test system: Mus musculus; test: Toxicity in subcutaneous pentylenetetrazole-induced CF1 albino mouse assessed as myoclonic jerks at 300 mg/kg, ip after 0.5 hrs; type: organism-based; parameters: dose 300 mg/kg; details: in vivo, sc
[25] = test system: Mus musculus; test: Anticonvulsant activity in CF1 albino mouse assessed as protection against subcutaneous pentylenetetrazole-induced seizures at 300 mg/kg, […] after 4 hrs; type: functional, organism-based; parameters: dose 300 mg/kg
[26] = test system: Mus musculus; test: Anticonvulsant activity in CF1 albino mouse assessed as protection against maximal electroshock-induced seizures at 300 mg/kg, ip after 0.5 hrs; type: functional, organism-based; parameters: dose 300 mg/kg
[27] = test system: Mus musculus; test: Toxicity in subcutaneous pentylenetetrazole-induced CF1 albino mouse assessed as myoclonic jerks at 100 mg/kg, ip after 0.5 hrs; type: organism-based; parameters: dose 100 mg/kg; details: in vivo, sc
[28] = test system: Mus musculus; test: Toxicity in subcutaneous pentylenetetrazole-induced CF1 albino mouse assessed as myoclonic jerks at 100 mg/kg, ip after 4 hrs; type: organism-based; parameters: dose 100 mg/kg; details: in vivo, sc
[29] = test system: Mus musculus; test: Neurotoxicity in ip dosed CF1 albino mouse assessed as minimum dose required to cause impair in motor coordination after 4 hrs by rotarod test; type: toxicity, organism-based; details: in vivo
[30] = test system: Mus musculus; test: Neurotoxicity in CF1 albino mouse assessed as loss of rotard grasping at 300 mg/kg, ip after 4 hrs by rotarod test; type: toxicity, organism-based; parameters: dose 300 mg/kg, route intraperitoneal; details: in vivo

| SMILES | minimal effective dose [2] [mg/kg] | minimal effective dose [6] [mg/kg] | logP [7] | Activity [16] | Activity [19] | Activity [25] | Activity [26] | other results |
| --- | --- | --- | --- | --- | --- | --- | --- | --- |
| O=C1NC(c2ccccc2)(C2CC2)C(=O)N1CN1CCN(C/C=C/c2ccccc2)CC1 (stereo not drawn) | 100 | 100 | 3.3 |  |  |  |  | minimal effective dose [1]: 100 mg/kg; minimal effective dose [3]: 300 mg/kg; Activity [4]: Toxic; Activity [5]: Toxic |
| O=C1NC(c2ccccc2)(C2CC2)C(=O)N1CN1CCc2ccccc2C1 (stereo not drawn) | 300 | 300 | 3.02 | Non-toxic |  |  |  | Activity [8]: inactive; Activity [9]: inactive; Activity [10]: Non-toxic; Activity [11]: Non-toxic; Activity [12]: Active; Activity [13]: Non-toxic; Activity [14]: Non-toxic; MTC [15]: 100 mg/kg; Activity [17]: Toxic; Activity [18]: Non-toxic |
| O=C(OCc1ccccc1)N1CCN(CN2C(=O)NC(c3ccccc3)(C3CC3)C2=O)CC1 (stereo not drawn) | 300 | 100 | 2.92 | Non-toxic | Non-toxic |  |  | Activity [8]: inactive; Activity [9]: inactive; Activity [10]: Non-toxic; Activity [11]: Non-toxic; TD50 [20]: > 60 mg/kg; Activity [12]: Active; Activity [13]: Non-toxic; Activity [14]: Non-toxic; Time [21]: 6 h; Activity [17]: Toxic; Activity [18]: Non-toxic; PI [22]: >5.98; ED50 [23]: 10 mg/kg; Activity [24]: Toxic |
| O=C1NC(c2ccccc2)(C2CC2)C(=O)N1CN1CCN(c2ccccc2F)CC1 (stereo not drawn) |  | 100 |  | Non-toxic | Non-toxic | inactive | inactive |  |
| O=C1NC(c2ccc(Cl)cc2)(C2CC2)C(=O)N1CN1CCN(c2ccccc2F)CC1 (stereo not drawn) |  | 300 |  | Non-toxic | Non-toxic | inactive | inactive |  |
| CC(c1ccccc1)N1CCN(CN2C(=O)NC(c3ccc(Cl)cc3)(C3CC3)C2=O)CC1 (stereo not drawn) | 300 | 300 | 3.9 | Non-toxic |  | inactive |  | Activity [5]: Toxic |
| COCCN1CCN(CN2C(=O)NC(c3ccccc3)(C3CC3)C2=O)CC1 (stereo not drawn) | 100 | 100 | 1.46 |  |  |  |  | Activity [27]: Toxic; Activity [28]: Toxic; MTC [29]: 30 mg/kg; MTC [15]: 30 mg/kg |
| O=C1NC(c2ccc(Cl)cc2)(C2CC2)C(=O)N1CN1CCN(c2ccccc2)CC1 (stereo not drawn) |  | 100 |  |  | Non-toxic | inactive | inactive | Activity [30]: Toxic |
